This passage reports EC50 results from patent publication US11072602B2, “Antidiabetic heterocyclic compounds” (Merck Sharp & Dohme Corp., priority 2016, dated 2021).

T1 sequence (O14842 whole entry): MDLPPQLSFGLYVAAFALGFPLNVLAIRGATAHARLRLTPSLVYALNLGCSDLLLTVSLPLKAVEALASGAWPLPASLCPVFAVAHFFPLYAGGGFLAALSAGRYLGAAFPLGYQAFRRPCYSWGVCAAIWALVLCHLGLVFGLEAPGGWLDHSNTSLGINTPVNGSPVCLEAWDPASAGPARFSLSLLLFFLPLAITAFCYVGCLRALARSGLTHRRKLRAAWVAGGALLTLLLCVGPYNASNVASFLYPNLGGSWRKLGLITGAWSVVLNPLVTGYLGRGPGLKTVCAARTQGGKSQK

This assay concerns the target T1, human GPR40 (Homo sapiens, UniProt O14842).
T1 construct: expressed in transfected cells
The assay can be described thus: Inositol Phosphate Turnover (IP1) Assay. It is filed as cell-based. The following applies: HEK cells stably expressing human GPR40, 7500 cells per well, CisBio IP-One kit. As to the method: Human GPR40 stable cell-lines were generated in HEK cells. The expression plasmids were transfected using lipofectamine (Life Technologies) following manufacturer's instructions. Stable cell-lines were generated following drug selection and single cell cloning.
The assay was performed in 384-well format. HEK cells stably expressing human GPR40 were plated at 7500 cells per well in growth medium (DMEM/10% fetal calf serum). Cell plates were then incubated 16 hours at 37 degrees in a 5% CO2 incubator. Measurement of Inositol Phosphate Turnover (IP1) was performed using the CisBio IP-One kit (Part number 62IPAPEB). After the 16 hour incubation, the growth media was removed by centrifugation using the BlueWasher (AusWasher GUI Ver. v1.0.1.8) Protocol #21-“Light Dry” and 10 ul of stimulation buffer (prepared as described in the kit) was added to each well. In a separate plate, compounds were diluted in DMSO (200-fold over the final concentration in the assay well) and 50 nl was acoustically transferred to the appropriate well in the assay cell plate. The plates were then incubated for 60 minutes at 37 degrees in a 5% CO2 incubator. 10 ul of detection buffer (also prepared as described in the IP-One kit) was added to each well and the plates were incubated at room temperature for 60 minutes in the dark. The plates were then read in a Perkin Elmer EnVision or equivalent reader able to measure FRET. Fluorescent ratio of emission at 665 and 620 nm was then converted to IP1 concentration by back calculating from an IP1 standard curve prepared at the time of the assay. Data was normalized to % activity using a reference compound and EC50s determined using a standard 4-parameter fit.
Consider `C[C@H](C(=O)O)[C@H](c1ccc2c(c1)OC(CC1CCN([C@H](C)c3cc(C(F)(F)F)ccc3C(F)(F)F)CC1)CC2)C1CC1` (mixture of isomers) [Example 9, (2S,3R)-3-((RS)-2-((1-((R)-1-(2,5-bis(trifluoromethyl)phenyl)ethyl)piperidin-4-yl)-methyl)chroman-7-yl)-3-cyclopropyl-2-methylpropanoic Acid], for which the EC50 (commonly the concentration that produces a half-maximal response) came to 63.7 nM. Consider `CC(c1cc(F)ccc1C(F)(F)F)N1CC2CC1CC2C1CCc2ccc([C@H](C3CC3)[C@H](C)C(=O)O)cc2O1` (mixture of isomers) [Example 39, (2S,3R)-3-cyclopropyl-3-((R or S)-2-((R or S,R or S)-2-((RS)-1-(5-fluoro-2-(trifluoromethyl)-phenyl)ethyl)-2-azabicyclo-[2.2.1]heptan-5-yl)chroman-7-yl)-2-methylpropanoic acid], for which a half-maximal effect (EC50) was put at 44.1 nM. Molecule `C[C@H](C(=O)O)[C@H](c1ccc2c(c1)OC(CCN(C)Cc1cc(C(F)(F)F)ccc1C(F)(F)F)CC2)C1CC1` (mixture of isomers) [Example 41, (2S,3R)-3-(2-(2-((2,5-bis-(trifluoromethyl)benzyl)(methyl)amino)ethyl)chroman-7-yl)-3-cyclopropyl-2-methylpropanic acid] had an EC50 of 8.72 nM. On to `C[C@H](C(=O)O)[C@H](c1ccc2c(c1)OC(CC1CCN([C@@H](C)c3cc(C(F)(F)F)ccc3C(F)(F)F)CC1)CC2)C1CC1` (mixture of isomers) [Example 12, (2S,3R)-3-((RS)-2-((1-((S)-1-(2,5-bis(trifluoro-methyl)phenyl)ethyl)piperi-din-4-yl)methyl)-chroman-7-yl)-3-cyclopropyl-2-methyl-propanoic acid], for which the EC50 was determined as 22.3 nM. In the case of `C[C@H](C(=O)O)[C@H](c1ccc2c(c1)OC(C1[C@@H]3CC[C@H]1CN([C@H](C)c1cc(C(F)(F)F)ccc1C(F)(F)F)C3)CC2)C1CC1` (mixture of isomers) [Example 22, (2S,3R)-3-(2-((1R,5S)-3-((R)-1-(2,5-bis(trifluoromethyl)phenyl)ethyl)-3-azabicyclo[3.2.1]octan-8-yl)chroman-7-yl)-3-cyclopropyl-2-methylpropanoic Acid] it was 45.6 nM; in that of `C[C@H](C(=O)O)[C@H](c1ccc2c(c1)OC(C1[C@@H]3CC[C@H]1CN([C@H](C)c1cc(C(F)(F)F)ccc1C(F)(F)F)C3)CC2)C1CC1` (mixture of isomers) [Example 23, (2S,3R)-3-(2-((1R,5S)-3-((R)-1-(2,5-bis(trifluoromethyl)phenyl)ethyl)-3-azabicyclo[3.2.1]octan-8-yl)chroman-7-yl)-3-cyclopropyl-2-methylpropanoic Acid], 49.8 nM; in that of `C[C@H](C(=O)O)[C@H](c1ccc2c(c1)OC(C1CC3CCCC(C1)N3[C@H](C)c1cc(C(F)(F)F)ccc1C(F)(F)F)CC2)C1CC1` (mixture of isomers) [Example 32, (2S,3R)-3-((RS)-2-((1R,3RS,5S)-9-((R)-1-(2,5-bis(trifluoromethyl)phenyl)ethyl)-9-azabicyclo[3.3.1]nonan-3-yl)chroman-7-yl)-3-cyclopropyl-2-methylpropanoic Acid], 171 nM. On to `C[C@H](C(=O)O)[C@H](c1ccc2c(c1)OC(C1CC3CCCC(C1)N3[C@@H](C)c1cc(C(F)(F)F)ccc1C(F)(F)F)CC2)C1CC1` (mixture of isomers) [Example 33, (2S,3R)-3-((RS)-2-((1R,3RS,5S)-9-((S)-1-(2,5-bis(trifluoromethyl)-phenyl)ethyl)-9-aza-bicyclo[3.3.1]-nonan-3-yl)chroman-7-yl)-3-cyclopropyl-2-methyl-propanoic acid], for which the concentration giving a half-maximal response (EC50) worked out at 750 nM. In the case of `C[C@H](C(=O)O)[C@H](c1ccc2c(c1)OC(C1[C@@H]3COC[C@H]1CN([C@@H](C)c1cc(F)ccc1C(F)(F)F)C3)CC2)C1CC1` (single isomer, unassigned) [Example 7] it was 11.2 nM; in that of `C[C@H](C(=O)O)[C@H](c1ccc2c(c1)OC(C1[C@@H]3COC[C@H]1CN([C@@H](C)c1cc(F)ccc1C(F)(F)F)C3)CC2)C1CC1` (single isomer, unassigned) [Example 8], 11.2 nM; in that of `C[C@H](C(=O)O)[C@H](c1ccc2c(c1)OC(CC1CCN([C@H](C)c3cc(C(F)(F)F)ccc3C(F)(F)F)CC1)CC2)C1CC1` (single isomer, unassigned) [Example 10, (2S,3R)-3-((R or S)-2-((1-((R)-1-(2,5-bis(trifluoromethyl)phenyl)ethyl)piperidin-4-yl)-methyl)chroman-7-yl)-3-cyclopropyl-2-methylpropanoic Acid], 29.3 nM. In the case of `C[C@H](C(=O)O)[C@H](c1ccc2c(c1)OC(CC1CCN([C@H](C)c3cc(C(F)(F)F)ccc3C(F)(F)F)CC1)CC2)C1CC1` (single isomer, unassigned) [Example 11, (2S,3R)-3-((S or R)-2-((1-((R)-1-(2,5-bis(trifluoromethyl)phenyl)ethyl)piperidin-4-yl)methyl)chroman-7-yl)-3-cyclopropyl-2-methylpropanoic Acid] it was 14.1 nM.

In turn, `C[C@H](C(=O)O)[C@H](c1ccc2c(c1)OC(C1CC3CC1CN3[C@H](C)c1cc(F)ccc1C(F)(F)F)CC2)C1CC1` (single isomer, unassigned) [Example 20] displayed an EC50 of 13.4 nM. `C[C@H](C(=O)O)[C@H](c1ccc2c(c1)OC(C1CC3CC1CN3[C@H](C)c1cc(F)ccc1C(F)(F)F)CC2)C1CC1` (single isomer, unassigned) [Example 21]: the EC50 was determined as 3.14 nM.

`C[C@H](C(=O)O)[C@H](c1ccc2c(c1)OC(C1[C@@H]3CC[C@@H]1CN([C@@H](C)c1cc(C(F)(F)F)ccc1C(F)(F)F)C3)CC2)C1CC1` (single isomer, unassigned) [Example 24] came in with an EC50 of 9.66 nM. As for `C[C@H](C(=O)O)[C@H](c1ccc2c(c1)OC(C1[C@@H]3CC[C@@H]1CN([C@@H](C)c1cc(C(F)(F)F)ccc1C(F)(F)F)C3)CC2)C1CC1` (single isomer, unassigned) [Example 25], the EC50 worked out at 67.3 nM. In the case of `C[C@H](C(=O)O)[C@H](c1ccc2c(c1)OC(C1[C@@H]3CC[C@H]1CN([C@@H](C)c1cc(F)ccc1C(F)(F)F)C3)CC2)C1CC1` (single isomer, unassigned) [Example 26] it was 9.68 nM; in that of `C[C@H](C(=O)O)[C@H](c1ccc2c(c1)OC(C1[C@@H]3CC[C@@H]1CN([C@@H](C)c1cc(F)ccc1C(F)(F)F)C3)CC2)C1CC1` (single isomer, unassigned) [Example 27, (2S,3R)-3-cyclopropyl-3-((2R or 2S)-2-((1R,5S)-3-((S)-1-(5-fluoro-2-(trifluoromethyl)phenyl)ethyl)-3-azabicyclo[3.2.1]-octan-8-yl)chroman-7-yl)-2-methylpropanoic acid], 20.2 nM; in that of `C[C@H](C(=O)O)[C@H](c1ccc2c(c1)OC(C1[C@@H]3CC[C@@H]1CN([C@@H](C)c1cc(F)ccc1C(F)(F)F)C3)CC2)C1CC1` (single isomer, unassigned) [Example 28, (2S,3R)-3-cyclopropyl-3-((2R or 2S)-2-((1R,5S)-3-((S)-1-(5-fluoro-2-(trifluoromethyl)phenyl)ethyl)-3-azabicyclo[3.2.1]-octan-8-yl)chroman-7-yl)-2-methylpropanoic acid], 28.7 nM. In the case of `C[C@H](C(=O)O)[C@H](c1ccc2c(c1)OC(C1[C@@H]3CC[C@H]1CN([C@@H](C)c1cc(F)ccc1C(F)(F)F)C3)CC2)C1CC1` (single isomer, unassigned) [Example 29] it was 72.8 nM. In the case of `C[C@H](C(=O)O)[C@H](c1ccc2c(c1)OC(C1[C@@H]3CC[C@@H]1CN([C@@H](C)c1cc(F)ccc1C(F)(F)F)C3)CC2)C1CC1` (single isomer, unassigned) [Example 30, (2S,3R)-3-cyclopropyl-3-((2R or 2S)-2-((1R,5S)-3-((S)-1-(5-fluoro-2-(tri-fluoromethyl)phenyl)eth-yl)-3-azabicyclo[3.2.1]-octan-8-yl)chroman-7-yl)-2-methylpropanoic acid] it was 453 nM.

For the molecule `C[C@H](C(=O)O)[C@H](c1ccc2c(c1)OC(C1[C@@H]3CC[C@@H]1CN([C@@H](C)c1cc(F)ccc1C(F)(F)F)C3)CC2)C1CC1` (single isomer, unassigned) [Example 31, (2S,3R)-3-cyclopropyl-3-((2R or 2S)-2-((1R,5S)-3-((S)-1-(5-fluoro-2-(trifluoromethyl)phenyl)ethyl)-3-azabicyclo[3.2.1]-octan-8-yl)chroman-7-yl)-2-methylpropanoic acid], a half-maximal response (EC50) required 32.6 nM.

Turning to `CC(C(=O)O)C(c1ccc2c(c1)OC(C1CC3CCCC(C1)N3C(C)c1cc(F)ccc1C(F)(F)F)CC2)C1CC1` (single isomer, unassigned) [Example 34], the EC50 was 29.4 nM. In the case of `CC(C(=O)O)C(c1ccc2c(c1)OC(C1CC3CCCC(C1)N3C(C)c1cc(F)ccc1C(F)(F)F)CC2)C1CC1` (single isomer, unassigned) [Example 35] it was 90.9 nM.
